Results published in patent US11639483B2, “Macrocyclic musk lactones and uses thereof” (PHYTO TECH CORP., priority 2021, dated 2023).

Legend:
Odor strength on blotter = test: Odor strength on blotter; parameters: species or system human
From the text: The results are presented below in Table 23a and Table 23b:

[1] = Fiber substantivity: odor strength on fabric treated with softener, 14 member-panel; parameters: species or system human; conditions: 70% in isopropyl myristate dosed 0.25% w/w in softener; line dried 20 hours; 9 (very good) to 0 (very poor)
Description: Additionally, substantivity is evaluated olfactively by a panel after treating samples of substrate with a perfumed product, such as a fabric softener for cotton fabric or a shampoo for hair, containing the lactones described herein or other musk fragrances for comparison, according to standard procedures described below. Thus, the evaluation is essentially a relative odor intensity measurement. It is known that the perceived odor intensity of mixtures of perfume ingredients when evaluated as such is generally less than the sum of the perceived odors of the components. Thus, the perceived odor intensity of a 1:1 mixture of 2 of the components of the lactones described herein would be expected to be lower than the sum of the intensities of the separate components, i.e. in such mixtures odor suppression is generally found. On the contrary, the perceived odor intensity on substrate treated with the lactones described herein is at least equal to, but in most cases greater than the perceived intensity of substrate treated with equal amounts of the separate components.
Comparison of the fiber substantivity of single polycyclic musks and macrocyclic musks with musk mixtures is described herein. 70% Solutions in isopropyl myristate of the musks and musk mixtures to be tested are dosed at 0.25% w/w in a single Arquad fabric softener (GT 117B). The test is carried out by rinsing “6″×6” (weight: 16 g) cotton terry towel pieces at ambient temperature in a tergotometer according to the procedure below: • 3 g of fabric softener containing the test musk is added to 1 liter of water and agitated for one minute to disperse. The fabric piece is added and washed for 10 minutes with constant agitation at 100 rpm. On completion of the wash cycle, the pieces are hand wringed and line dried for 20 hours. • The cloths are assessed olfactively by a 14 member-panel. A 10-point scale is used running from 9 (very good) to 0 (very poor).

[2] = Appearance of musk in laundry detergent base; format: physicochemical
Description: Furthermore, musk lactone mixture A and other musks were also evaluated at two different loadings in laundry detergent base, as shown in Tables 38 and 39.

[3] = In use comparison of musk lactone mixture A with commercial musks in unperfumed laundry detergent, expert panel; parameters: species or system human; conditions: for DAMP HED / DAMP STR: damp towel; for DAMP HED / DRY TWL 1 DAY HED / DRY TWL 7 DAYS HED / DRY TWL 15 DAYS HED / JAR HED: hedonic; for DAMP STR / DRY TWL 1 DAY STR / DRY TWL 7 DAYS STR / DRY TWL 15 DAYS STR / JAR STR: strength; for DRY TWL 1 DAY HED / DRY TWL 1 DAY STR: dry towel 1 day; for DRY TWL 7 DAYS HED / DRY TWL 7 DAYS STR: dry towel 7 days; for DRY TWL 15 DAYS HED / DRY TWL 15 DAYS STR: dry towel 15 days; for JAR STR: jar (point of purchase)
Description: Olfactive evaluations in use were performed by an expert panel. The range of materials evaluated was comprehensive, including musk products commercially available: Nitromusk, Polycyclic and Macrocyclic categories (Ambrettolide, Dihydro Ambrettolide, Scentolide, Muscone, Muscenone, Velvione, Musk Ambrette, Edenolide, Ethylene Brassylate, Galaxolide, Tonalide, Habanolide, Globanone, Macrolide, Oxalide T and others).
Evaluation samples were prepared using unperfumed laundry detergent (formulation example in Example 4, Table 10) at two different dosages: 10% Solution @ 0.8% (yielding 0.08% musk lactone mixture A) or 1.5% (yielding 0.15% musk lactone mixture A) driven by relative product performance in formulas and practical laboratory practices to execute the comparisons. The concentration of musk lactone mixture A in each evaluation was at the same concentration as the commercial musk.
The evaluations were performed in use stages: Jar (POP—Point of purchase), damp towel, Dry towel (1 day) and Storage Dry towel (7 days and 15 days). A five points scale was utilized, rating both strength and hedonic character: • Strength (STR) is rated as the overall scent power coming up from the substrate, due to physicochemical properties and commonly described as a combination of diffusion, bloom, body and or volume perceptions.

[4] = Appearance (solubility) of shampoo with musk, increased load; format: physicochemical
[5] = 0.04% Musk in laundry detergent base
[6] = 0.08% Musk in laundry detergent base

Compound	Appearance [2, 5]	Appearance [2, 6]	DAMP HED ([3]; 10% IPM @0.8%)	DAMP STR ([3]; 10% IPM @0.8%)	DRY TWL 1 DAY HED ([3]; 10% IPM @0.8%)	DRY TWL 1 DAY STR ([3]; 10% IPM @0.8%)	DRY TWL 7 DAYS HED ([3]; 10% IPM @0.8%)	DRY TWL 7 DAYS STR ([3]; 10% IPM @0.8%)	DRY TWL 15 DAYS HED ([3]; 10% IPM @0.8%)	DRY TWL 15 DAYS STR ([3]; 10% IPM @0.8%)	JAR STR ([3]; 10% IPM @0.8%)	JAR HED ([3]; 10% IPM @0.8%)	other results
O=C1CCCCCCCCCCCCCCCO1 [Hexadecanolide]													ODOR STRENGTH ON BLOTTER, Rating (10-point scale) (Odor strength on blotter): 5.8; ODOR STRENGTH ON FABRIC TREATED WITH SOFTENER, Rating (10-point scale) [1]: 4.8
O=C1CCCCCCCCCCCC(=O)OCCO1 [Ethylene Brassylate, ethylene brassilate]	Very cloudy	Phase separation											DAMP HED ([3]; 10% IPM @1.5%): −− /−− ((−−) Significantly inferior); DAMP STR ([3]; 10% IPM @1.5%): −− /−− ((−−) Significantly inferior); DRY TWL 1 DAY HED ([3]; 10% IPM @1.5%): −−/−− ((−−) Significantly inferior); DRY TWL 1 DAY STR ([3]; 10% IPM @1.5%): −−/−− ((−−) Significantly inferior); DRY TWL 7 DAYS HED ([3]; 10% IPM @1.5%): −−/−− ((−−) Significantly inferior); DRY TWL 7 DAYS STR ([3]; 10% IPM @1.5%): −−/−− ((−−) Significantly inferior); DRY TWL 15 DAYS HED ([3]; 10% IPM @1.5%): −−/−− ((−−) Significantly inferior); DRY TWL 15 DAYS STR ([3]; 10% IPM @1.5%): −−/−− ((−−) Significantly inferior); JAR STR ([3]; 10% IPM @1.5%): −−/−− ((−−) Significantly inferior); JAR HED ([3]; 10% IPM @1.5%): −−/−− ((−−) Significantly inferior)
O=C1CCCCC/C=C\CCCCCCCCO1 [Ambrettolide]	Very cloudy	Phase separation	+ ((+) directionally superior)	−− ((−−) Significantly inferior)	−/− ((−) directionally inferior)	−/− ((−) directionally inferior)	−/− ((−) directionally inferior)	−/− ((−) directionally inferior)	−/− ((−) directionally inferior)	−/− ((−) directionally inferior)	−− ((−−) Significantly inferior)	− ((−) directionally inferior)	appearance of shampoo formula ([4]; 0.3% musk with 0.2% fruity floral fragrance oil): cloudy; appearance of shampoo formula ([4]; lower level of ambrettolide (0.2%)): remaining clear
C[C@@H]1CCCCCCCCCCCCC(=O)C1 [MUSCONE, Muscone]			+ ((+) directionally superior)	++	++	+ ((+) directionally superior)	++	+ ((+) directionally superior)	++	+ ((+) directionally superior)	++/++	++/++	
COc1c(C(C)(C)C)cc([N+](=O)[O-])c(C)c1[N+](=O)[O-] [musk ambrette]			− ((−) directionally inferior)	++	0 (comparable)	+ ((+) directionally superior)	0 (comparable)	+ ((+) directionally superior)	0 (comparable)	+ ((+) directionally superior)	++	− ((−) directionally inferior)	
CC1COCc2cc3c(cc21)C(C)(C)C(C)C3(C)C (stereo not drawn) [Galaxolide, galaxolide]	Very cloudy	Phase separation											ODOR STRENGTH ON BLOTTER, Rating (10-point scale) (Odor strength on blotter): 5.8; DAMP HED ([3]; 10% IPM @1.5%): −−/−− ((−−) Significantly inferior); DAMP STR ([3]; 10% IPM @1.5%): −−/−− ((−−) Significantly inferior); DRY TWL 1 DAY HED ([3]; 10% IPM @1.5%): −−/−− ((−−) Significantly inferior); DRY TWL 1 DAY STR ([3]; 10% IPM @1.5%): −−/−− ((−−) Significantly inferior); DRY TWL 7 DAYS HED ([3]; 10% IPM @1.5%): −−/−− ((−−) Significantly inferior); DRY TWL 7 DAYS STR ([3]; 10% IPM @1.5%): −−/−− ((−−) Significantly inferior); DRY TWL 15 DAYS HED ([3]; 10% IPM @1.5%): −−/−− ((−−) Significantly inferior); DRY TWL 15 DAYS STR ([3]; 10% IPM @1.5%): −−/−− ((−−) Significantly inferior); JAR STR ([3]; 10% IPM @1.5%): −−/−− ((−−) Significantly inferior); JAR HED ([3]; 10% IPM @1.5%): −−/−− ((−−) Significantly inferior); ODOR STRENGTH ON FABRIC TREATED WITH SOFTENER, Rating (10-point scale) [1]: 3.8
O=C1CCCCCCCCOCCCCCCO1 [OXALIDE T, Oxalide T]			0/0 (comparable)	0/0 ((0) comparable)	0/0 (comparable)	0/0 ((0) comparable)	0/0 (comparable)	0/0 ((0) comparable)	0/0 (comparable)	0/0 ((0) comparable)	0 ((0) comparable)	− ((−) directionally inferior)	
CC(=O)c1cc2c(cc1C)C(C)(C)C(C)CC2(C)C (stereo not drawn) [tonalide/fixolide]	Very cloudy	Phase separation											
Scentolide			0 / 0 (comparable)	0 / 0 ((0) comparable)	−/− ((−) directionally inferior)	−/− ((−) directionally inferior)	−/− ((−) directionally inferior)	−/− ((−) directionally inferior)	−/− ((−) directionally inferior)	−/− ((−) directionally inferior)	0/0 ((0) comparable)	0/0 (comparable)	
Edenolide			−/− ((−) directionally inferior)	−/− ((−) directionally inferior)	0/0 (comparable)	0/0 ((0) comparable)	0/0 (comparable)	0/0 ((0) comparable)	0/0 (comparable)	0/0 ((0) comparable)	0/0 ((0) comparable)	0/0 (comparable)	
O=C1CCCCCCCCCCCCCCCO1 [dihydroambrettolide]	Very cloudy	Phase separation	+ ((+) directionally superior)	0 ((0) comparable)	+ ((+) directionally superior)	0 ((0) comparable)	+ ((+) directionally superior)	0 ((0) comparable)	+ ((+) directionally superior)	0 ((0) comparable)	0 ((0) comparable)	− ((−) directionally inferior)	
CC1CC=CCCCCCCCCCC(=O)C1 (stereo not drawn) [MUSCENONE, muscenone]			++	+ ((+) directionally superior)	++/++	++/++	++/++	++/++	++/++	++/++	+ ((+) directionally superior)	++	
CC1CCCCCCCCCCCCC(=O)C1 (stereo not drawn) [l-muscone, muscone laevo]	Very cloudy	Phase separation											
CC(=O)c1cc2c(cc1C)C(C)(C)C(C)CC2(C)C (stereo not drawn) [Tonalid, tonalid]													ODOR STRENGTH ON BLOTTER, Rating (10-point scale) (Odor strength on blotter): 8.2; ODOR STRENGTH ON FABRIC TREATED WITH SOFTENER, Rating (10-point scale) [1]: 7.2
O=C1CCC/C=C\CCCCCCCCCC1 [velvione]	Very cloudy	Phase separation	+/+ ((+) directionally superior)	+/+ ((+) directionally superior)	++/++	++/++	++/++	++/++	++/++	++/++	+ ((+) directionally superior)	0 (comparable)	
